Experimental data from ChEMBL document CHEMBL1201862, “PubChem BioAssay data set” (2004).
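Step 1: Grow cells in 96-well plates. Step 2: Expose to compound for 48 hours at 5 concentrations. Step 3: Interpolate endpoints linearly; if unreached, use highest concentration. GI50: concentration for 50% inhibition of growth.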 Active and inactive are the calls of the source. No stated cut-off is given here; in the data, active = GI50 up to about 1.1 µM and inactive = higher.

Tests used:
Experiment in all cases: DTP human tumour cell line panel, 48 h
786-0 = test system: 786-0
U-251 = test system: U-251
COLO 205 = test system: COLO 205
RPMI-8226 = test system: RPMI-8226
SNB-19 = test system: SNB-19
NCI-H23 = test system: NCI-H23
OVCAR-5 = test system: OVCAR-5
HCT-15 = test system: HCT-15
SK-MEL-2 = test system: SK-MEL-2
SF-539 = test system: SF-539
SN12C = test system: SN12C
HOP-62 = test system: HOP-62
NCI-H460 = test system: NCI-H460
HCT-116 = test system: HCT-116
KM12 = test system: KM12
SF-268 = test system: SF-268
NCI-H522 = test system: NCI-H522
MDA-MB-435 = test system: MDA-MB-435
NCI/ADR-RES = test system: NCI/ADR-RES

Row | Compound | GI50 (786-0) | GI50 (U-251) | GI50 (COLO 205) | GI50 (RPMI-8226) | GI50 (SNB-19) | GI50 (NCI-H23) | GI50 (OVCAR-5) | GI50 (HCT-15) | GI50 (SK-MEL-2) | GI50 (SF-539) | GI50 (SN12C) | GI50 (HOP-62) | GI50 (NCI-H460) | GI50 (HCT-116) | GI50 (KM12) | GI50 (SF-268) | GI50 (NCI-H522) | GI50 (MDA-MB-435) | GI50 (NCI/ADR-RES)
1 | O=C1CCC(Cl)=CC2CCCN12 (stereo not drawn) | > 100 µM (inactive) | > 100 µM (inactive) | > 100 µM (inactive) | > 100 µM (inactive) | > 100 µM (inactive) | > 100 µM (inactive) | > 100 µM (inactive) | > 100 µM | > 100 µM (inactive) | > 100 µM (inactive) | > 100 µM (inactive) | > 100 µM (inactive) | > 100 µM (inactive) | > 100 µM (inactive) |  |  |  |  | 
2 | C=CCNC(=S)OCCCCCCCCCC | 18.2 µM (inactive) | 16.7 µM (inactive) |  | 18.8 µM (inactive) | 30.8 µM (inactive) | 19.8 µM (inactive) | 10.2 µM (inactive) | 15.8 µM | 12.3 µM (inactive) | 19 µM (inactive) | 17.7 µM (inactive) | 21.7 µM (inactive) | 17.6 µM (inactive) | 16.9 µM (inactive) | 12.4 µM (inactive) | 19.5 µM (inactive) |  |  | 
3 | CC1(C)C(O)C[C@]23CCC[C@](C)(C[C@@H](O)C12)C3 (stereo partly drawn) | 32.9 µM (inactive) | > 100 µM (inactive) | > 100 µM (inactive) | > 100 µM (inactive) | > 100 µM (inactive) | > 100 µM (inactive) | > 100 µM (inactive) | > 100 µM | > 100 µM (inactive) |  | > 100 µM (inactive) | > 100 µM (inactive) | > 100 µM (inactive) |  | > 100 µM (inactive) | > 100 µM (inactive) | > 100 µM (inactive) | > 100 µM (inactive) | > 100 µM (inactive)
4 | CC1C=CC(C(N)C(=O)O)O1 (stereo not drawn) | > 100 µM (inactive) | > 100 µM (inactive) | > 100 µM (inactive) | > 100 µM (inactive) | > 100 µM (inactive) | > 100 µM (inactive) | > 100 µM (inactive) | > 100 µM | > 100 µM (inactive) | > 100 µM (inactive) | > 100 µM (inactive) | > 100 µM (inactive) | > 100 µM (inactive) | > 100 µM (inactive) | > 100 µM (inactive) | > 100 µM (inactive) | > 100 µM (inactive) |  | 
5 | CCc1cccc(C(C)CC)c1NC(=O)CC1C(=O)Nc2ccccc2S1(=O)=O (stereo not drawn) | 15.4 µM (inactive) | 40.3 µM (inactive) | 20.9 µM (inactive) | 5.38 µM (inactive) | 13.4 µM (inactive) | 7.45 µM (inactive) | 70.1 µM (inactive) | 13.3 µM | 64.6 µM (inactive) | 21.5 µM (inactive) | 18.4 µM (inactive) | 36.8 µM (inactive) | 23.9 µM (inactive) |  | 11.5 µM (inactive) | 25.8 µM (inactive) |  |  | 
6 | O=C(CC1C(=O)Nc2ccccc2[S+]1[O-])Nc1cc(Cl)ccc1Cl (stereo not drawn) | > 100 µM (inactive) | > 100 µM (inactive) |  | > 100 µM (inactive) | > 100 µM (inactive) | > 100 µM (inactive) | > 100 µM (inactive) | > 100 µM | > 100 µM (inactive) | > 100 µM (inactive) | > 100 µM (inactive) |  | > 100 µM (inactive) | > 100 µM (inactive) |  | > 100 µM (inactive) | > 100 µM (inactive) |  | 
7 | FC(F)(F)c1cccc2ns[s+]c12 | > 100 µM (inactive) | > 100 µM (inactive) | > 100 µM (inactive) |  | > 100 µM (inactive) | > 100 µM (inactive) | > 100 µM (inactive) |  | > 100 µM (inactive) | > 100 µM (inactive) | > 100 µM (inactive) | > 100 µM (inactive) | > 100 µM (inactive) | > 100 µM (inactive) | > 100 µM (inactive) | > 100 µM (inactive) | > 100 µM (inactive) |  | 
8 | CC(=O)OCC1OC(N=[N+]=[N-])C(OC(C)=O)C(OC(C)=O)C1OC1OC(COC(C)=O)C(OC(C)=O)C(OC(C)=O)C1OC(C)=O (stereo not drawn) | > 100 µM (inactive) | > 100 µM (inactive) | > 100 µM (inactive) | > 100 µM (inactive) | 64.1 µM (inactive) | > 100 µM (inactive) | > 100 µM (inactive) | > 100 µM | > 100 µM (inactive) | 58.6 µM (inactive) | > 100 µM (inactive) |  | > 100 µM (inactive) |  | > 100 µM (inactive) | > 100 µM (inactive) | > 100 µM (inactive) |  | 
9 | CCOc1nc(OCC)nc(-c2cccn2-c2ccccc2)n1 | 45.1 µM (inactive) | 18.5 µM (inactive) |  |  | 31.4 µM (inactive) | 30.8 µM (inactive) | 74.1 µM (inactive) | 34.6 µM | 34.8 µM (inactive) | 51.5 µM (inactive) | 45.6 µM (inactive) | 46.1 µM (inactive) | 29 µM (inactive) | 37.3 µM (inactive) | 28.5 µM (inactive) | 46.5 µM (inactive) | 32.7 µM (inactive) |  | 
10 | COc1ccc(-c2c(C3=NCCCN3)nnn2-c2ccccc2)cc1 | > 100 µM (inactive) | > 100 µM (inactive) | > 100 µM (inactive) | > 100 µM (inactive) | > 100 µM (inactive) | > 100 µM (inactive) | > 100 µM (inactive) | > 100 µM | > 100 µM (inactive) | > 100 µM (inactive) | > 100 µM (inactive) | > 100 µM (inactive) | > 100 µM (inactive) | > 100 µM (inactive) | > 100 µM (inactive) | > 100 µM (inactive) | > 100 µM (inactive) |  | 
11 | COc1ccccc1C#C/C=C\C#Cc1ccccc1C#N | 18.5 µM (inactive) | 9.18 µM (inactive) | 13.3 µM (inactive) |  | 37.8 µM (inactive) | 5.61 µM (inactive) | 39.2 µM (inactive) | 6.93 µM | 14.9 µM (inactive) | 18.6 µM (inactive) | 26 µM (inactive) | 14.5 µM (inactive) | 13.3 µM (inactive) | 7.35 µM (inactive) | 6.37 µM (inactive) | 19.4 µM (inactive) | 5.14 µM (inactive) | 3.24 µM (inactive) | 10.4 µM (inactive)
12 | CN1CCc2c1nc(-c1ccccc1)c1c2N(C)CC1 | 66.8 µM (inactive) | > 100 µM (inactive) | 34.7 µM (inactive) | 39.6 µM (inactive) | 90.4 µM (inactive) | 55.7 µM (inactive) | > 100 µM (inactive) | 66.4 µM | > 100 µM (inactive) | 60.8 µM (inactive) | 62.7 µM (inactive) | 43.8 µM (inactive) | 71.1 µM (inactive) | 28.1 µM (inactive) | 48.4 µM (inactive) | > 100 µM (inactive) |  |  | 
13 | c1cc2sc1CSCCSCCSC2 | > 100 µM (inactive) | > 100 µM (inactive) | > 100 µM (inactive) |  | > 100 µM (inactive) | > 100 µM (inactive) | > 100 µM (inactive) | > 100 µM |  | > 100 µM (inactive) | > 100 µM (inactive) | > 100 µM (inactive) | > 100 µM (inactive) | > 100 µM (inactive) | > 100 µM (inactive) | > 100 µM (inactive) | > 100 µM (inactive) | > 100 µM (inactive) | > 100 µM (inactive)
14 | CC1NOC(NS(=O)(=O)c2ccc(/N=N/c3c(O)c(C(=O)O)cc4ccccc34)cc2)C1C (stereo not drawn) | > 100 µM (inactive) | > 100 µM (inactive) | > 100 µM (inactive) | > 100 µM (inactive) | 59.2 µM (inactive) |  | > 100 µM (inactive) | > 100 µM | > 100 µM (inactive) | > 100 µM (inactive) |  | > 100 µM (inactive) | > 100 µM (inactive) | > 100 µM (inactive) | 57.8 µM (inactive) | > 100 µM (inactive) | 72.4 µM (inactive) | > 100 µM (inactive) | > 100 µM (inactive)
15 | Nn1c(S)nnc1N/N=C1/C(=O)Nc2c(Cl)cc(Cl)cc21 | 97.3 µM (inactive) | > 100 µM (inactive) | > 100 µM (inactive) | > 100 µM (inactive) | 76 µM (inactive) | > 100 µM (inactive) | > 100 µM (inactive) | > 100 µM | > 100 µM (inactive) | > 100 µM (inactive) | 94.8 µM (inactive) | 50.4 µM (inactive) | > 100 µM (inactive) | > 100 µM (inactive) | > 100 µM (inactive) | > 100 µM (inactive) | 95.1 µM (inactive) |  | 
16 | O=C(CSc1nc2ccc(I)cc2c(=O)n1Cc1ccccc1)Nc1ccc(Br)cc1 | 58.6 µM (inactive) | 39 µM (inactive) | 59.4 µM (inactive) | > 100 µM (inactive) | 68.1 µM (inactive) | > 100 µM (inactive) | 44.5 µM (inactive) | 36 µM | 64.1 µM (inactive) | 2.32 µM (inactive) | 37.2 µM (inactive) | 78.2 µM (inactive) |  | 88.5 µM (inactive) | 78.7 µM (inactive) | 12.2 µM (inactive) | 46.7 µM (inactive) | > 100 µM (inactive) | 51.9 µM (inactive)
17 | O=C1OC(C(O)CO)C(C(O)CO)OC1=O (stereo not drawn) | > 10 µM (inactive) | > 10 µM (inactive) | > 10 µM (inactive) | > 10 µM (inactive) | > 10 µM (inactive) | > 10 µM (inactive) | > 10 µM (inactive) | > 10 µM |  | > 10 µM (inactive) | > 10 µM (inactive) | > 10 µM (inactive) | > 10 µM (inactive) |  | > 10 µM (inactive) | > 10 µM (inactive) |  | > 10 µM (inactive) | > 10 µM (inactive)
18 | CCCCCCCCCCCCCCCCCCCCCCC(=O)N[C@H]1CCc2cc(OC)c(OC)c(OC)c2-c2ccc(SC)c(=O)cc21 | 40.2 µM (inactive) | 24.2 µM (inactive) | 12.8 µM (inactive) |  | 39.1 µM (inactive) | 25.5 µM (inactive) | > 100 µM (inactive) | 26.4 µM |  | 17.6 µM (inactive) | 28.2 µM (inactive) | 16.1 µM (inactive) | 28.4 µM (inactive) | 26 µM (inactive) | 35.2 µM (inactive) | 59.7 µM (inactive) | 13.4 µM (inactive) |  | 
